Measurements from publication PMC8980233, “Differentiating the Neuropharmacological Properties of Nicotinic Acetylcholine Receptor-Activating Alkaloids” (Frontiers in Pharmacology, 2022).

Key:
[1] = test system: C57Bl/6 mice; experiment: Tolerability test (body weight, body temperature, passive signs, manipulation responses); settings: for BT (°C) naïve / Manipulations naïve / Passive naïve: baseline; for BW Day 1 / BW Day 2: mean ± SD
Procedure: In brief, mice were single-housed prior to the test and evaluated for baseline body weight, body temperature, and other parameters. […] On day 1, the mice were i. p. injected with saline (vehicle) or a test compound at 10 ml/kg body weight. Then, body temperature was measured at 15 min, 4 h, and 24 h and body weight on days 1 and 2. Neurological and motor parameters were evaluated at 15 min, 2 h, and 4 h after administration. The list of parameters is provided in Supplementary Figure S1 in Supplementary Material S1.
In addition, within 5 min after the 15-min observation period, mice were placed in open-field chambers for 30 min to determine their general motor activity (distance traveled), ambulatory time, and number of rears. The open-field chambers were made of Plexiglas (27.3 × 27.3 × 20.3 cm; Med Associates Inc, St Albans, VT, United States) surrounded by infrared photobeam sources (16 × 16 × 16 beams). Horizontal activity (distance and time traveled) and vertical activity (number and frequency of rears) were measured by consecutive beam breaks. At the end of each open-field test session, the chambers were thoroughly cleaned with NOLVASAN® solution (Zoetis Services LLC, Parsippany, NJ, United States). Four mice were used per treatment condition. Mice were terminated after completion of the last tolerability observation.
All compounds were diluted in saline, and the pH was adjusted to approximately 7.0 with HCl or NaOH on the day of the experiment. […] The doses were calculated based on the free base molecular weight of the compounds.
For the tolerability tests, passive signs and manipulation responses were analyzed for effects of the treatment by the Kruskal–Wallis test. Body temperature and body weight data were analyzed by two-way repeated measures analysis of variance (ANOVA). The total distance and time traveled and number and frequency of rears in the open-field activity test were analyzed by one-way ANOVA, followed by the Tukey post-hoc test. For the analyses of the zebrafish NTT data, one-way ANOVA was used, followed by Dunnett’s multiple comparison test, if it passed the Shapiro-Wilk normality test. […] An effect was considered significant if p < 0.05. The half maximal effective concentration (EC50) and half-maximal inhibitory concentration (IC50) for the receptor pharmacology and neurotransmitter release assay were determined by using nonlinear regression analysis. Statistical analyses were conducted using GraphPad Prism.

[2] = test system: zebrafish (Danio rerio; strain AB); experiment: Zebrafish novel tank test (NTT)
Procedure: Adult male and female wild-type zebrafish were treated with the compounds for 20 min in a final volume of 50 ml in a 250-ml treatment beaker one fish at a time. The fish were briefly rinsed in fresh system water, and then immediately transferred to a trapezoidal tank (14.6 cm height x 5.5 cm width x 27.9 cm top length and x 23.6 cm bottom length) filled with 1.5 L system water. The behavior of the fish was monitored for the next 5 min by using the Noldus EthoVision XT system (Wageningen, Netherlands), with the camera placed approximately 1 m from the test tank. The part of the tank filled with water (11.5 cm height) was virtually divided into top, center, and bottom of equal heights (approximately 3.8 cm per segment) for the analysis. The average time spent at the top and bottom portions of the tank was analyzed to determine the anxiety-like behavior of fish. The average total distance travelled and freezing time were calculated to determine the effects of the compounds on the general behavior of fish. Freezing was defined by a complete cessation of movement except for gills and eyes ([Kalueff et al., 2013]). A minimum of 12 fish (6 females and 6 males) per condition were used for the study. The experimenter was blind to the test conditions.
If not, the dose was reduced until no obvious signs of tolerability problems were observed. […] The concentrations were calculated based on the free base molecular weight. Buspirone—a clinical anxiolytic drug used acutely and chronically to investigate the change in the anxiety-like behavior ([Maximino, et al., 2011]; [Maximino, et al., 2013])—was included as a positive control.

[3] = only at the highest dose tested (10 mg/L)
[4] = 1, 3, and 10 mg/L, 20 min treatment

CN1C(=O)CC[C@H]1c1cccnc1 [Cotinine, (-)-cotinine]
tolerability ([1]; mouse, in vivo, ip, 10 mg/kg): well tolerated
freezing time ([2]; 100 mg/L): without affecting their freezing time
total distance traveled ([2]; 100 mg/L): reduced
time spent at the bottom ([2]; 100 mg/kg, 20 min treatment): spent less time at the bottom
time spent at the top ([2]; any doses (30, 100, and 300 mg/L)): not affected
time spent at the bottom ([2]; other concentrations (30 and 300 mg/L)): no effect
concentration inducing anxiolytic-like effect, fold higher than nicotine ([2]; zebrafish): 100 fold

C1=CCC(c2cccnc2)NC1 (racemic) [Anatabine, (±)-Anatabine]
BT (°C) naïve ([1]; 1 mg/kg group): 37.95 ± 0.13 °C
Manipulations naïve ([1]; 1 mg/kg group): 0.00 ± 0.00
Passive naïve ([1]; 1 mg/kg group): 0.00 ± 0.00
BT (°C) 15min ([1]; 1 mg/kg i.p.): 36.98 ± 0.41 °C
BT (°C) 4hr ([1]; 1 mg/kg i.p.): 36.65 ± 0.33 °C
BT (°C) 24hr ([1]; 1 mg/kg i.p.): 36.88 ± 0.43 °C
Manipulations 15min ([1]; 1 mg/kg i.p.): 0.00 ± 0.00
Manipulations 2hr ([1]; 1 mg/kg i.p.): 0.00 ± 0.00
Manipulations 4hr ([1]; 1 mg/kg i.p.): 0.00 ± 0.00
Passive 15min ([1]; 1 mg/kg i.p.): 0.00 ± 0.00
Passive 2hr ([1]; 1 mg/kg i.p.): 0.00 ± 0.00
Passive 4hr ([1]; 1 mg/kg i.p.): 0.00 ± 0.00
BW Day 1 ([1]; 1 mg/kg i.p.): 24.46 ± 2.30
BW Day 2 ([1]; 1 mg/kg i.p.): 24.64 ± 2.56
BT (°C) naïve ([1]; 2 mg/kg group): 37.83 ± 0.15 °C
Manipulations naïve ([1]; 2 mg/kg group): 0.00 ± 0.00
Passive naïve ([1]; 2 mg/kg group): 0.00 ± 0.00
BT (°C) 15min ([1]; 2 mg/kg i.p.): 35.28 ± 0.49 °C
BT (°C) 4hr ([1]; 2 mg/kg i.p.): 36.48 ± 0.49 °C
BT (°C) 24hr ([1]; 2 mg/kg i.p.): 36.45 ± 0.30 °C
Manipulations 15min ([1]; 2 mg/kg i.p.): 0.00 ± 0.00
Manipulations 2hr ([1]; 2 mg/kg i.p.): 0.00 ± 0.00
Manipulations 4hr ([1]; 2 mg/kg i.p.): 0.00 ± 0.00
Passive 15min ([1]; 2 mg/kg i.p.): 0.00 ± 0.00
Passive 2hr ([1]; 2 mg/kg i.p.): 0.00 ± 0.00
Passive 4hr ([1]; 2 mg/kg i.p.): 0.00 ± 0.00
BW Day 1 ([1]; 2 mg/kg i.p.): 24.64 ± 1.69
BW Day 2 ([1]; 2 mg/kg i.p.): 24.89 ± 2.21
BT (°C) naïve ([1]; 4 mg/kg group): 38.08 ± 0.05 °C
Manipulations naïve ([1]; 4 mg/kg group): 0.00 ± 0.00
Passive naïve ([1]; 4 mg/kg group): 0.00 ± 0.00
BT (°C) 15min ([1]; 4 mg/kg i.p.): 33.92 ± 0.30 °C
BT (°C) 4hr ([1]; 4 mg/kg i.p.): 36.30 ± 0.40 °C
BT (°C) 24hr ([1]; 4 mg/kg i.p.): 36.63 ± 0.17 °C
Manipulations 15min ([1]; 4 mg/kg i.p.): 0.00 ± 0.00
Manipulations 2hr ([1]; 4 mg/kg i.p.): 0.00 ± 0.00
Manipulations 4hr ([1]; 4 mg/kg i.p.): 0.00 ± 0.00
Passive 15min ([1]; 4 mg/kg i.p.): 0.00 ± 0.00
Passive 2hr ([1]; 4 mg/kg i.p.): 0.00 ± 0.00
Passive 4hr ([1]; 4 mg/kg i.p.): 0.00 ± 0.00
body temperature 15 min after the injection ([1]; 4 mg/kg i.p.): decreased the body temperature
BW Day 1 ([1]; 4 mg/kg i.p.): 24.73 ± 1.23
BW Day 2 ([1]; 4 mg/kg i.p.): 24.43 ± 1.13
total distance travelled ([2]; 0.3 and 10 mg/L): reduced
freezing time ([2]; only at 0.3 mg/L): increased
time spent at the bottom [2, 3]: reduced the time spent at the bottom
time spent at the top [2, 3]: increased the time spent at the top

CN1CCC[C@H]1c1cccnc1 [Nicotine, (-)-Nicotine]
BT (°C) naïve ([1]; 0.25 mg/kg group): 37.83 ± 0.15 °C
Manipulations naïve ([1]; 0.25 mg/kg group): 0.00 ± 0.00
Passive naïve ([1]; 0.25 mg/kg group): 0.00 ± 0.00
BT (°C) 15min ([1]; 0.25 mg/kg i.p.): 37.48 ± 0.98 °C
BT (°C) 4hr ([1]; 0.25 mg/kg i.p.): 36.88 ± 0.97 °C
BT (°C) 24hr ([1]; 0.25 mg/kg i.p.): 36.43 ± 0.87 °C
Manipulations 15min ([1]; 0.25 mg/kg i.p.): 0.00 ± 0.00
Manipulations 2hr ([1]; 0.25 mg/kg i.p.): 0.00 ± 0.00
Manipulations 4hr ([1]; 0.25 mg/kg i.p.): 0.00 ± 0.00
Passive 15min ([1]; 0.25 mg/kg i.p.): 0.00 ± 0.00
Passive 2hr ([1]; 0.25 mg/kg i.p.): 0.00 ± 0.00
Passive 4hr ([1]; 0.25 mg/kg i.p.): 0.00 ± 0.00
BW Day 1 ([1]; 0.25 mg/kg i.p.): 24.54 ± 0.97
BW Day 2 ([1]; 0.25 mg/kg i.p.): 24.33 ± 0.99
BT (°C) naïve ([1]; 0.5 mg/kg group): 37.93 ± 0.17 °C
Manipulations naïve ([1]; 0.5 mg/kg group): 0.00 ± 0.00
Passive naïve ([1]; 0.5 mg/kg group): 0.00 ± 0.00
BT (°C) 15min ([1]; 0.5 mg/kg i.p.): 36.48 ± 0.90 °C
BT (°C) 4hr ([1]; 0.5 mg/kg i.p.): 36.50 ± 0.44 °C
BT (°C) 24hr ([1]; 0.5 mg/kg i.p.): 36.65 ± 0.41 °C
Manipulations 15min ([1]; 0.5 mg/kg i.p.): 0.00 ± 0.00
Manipulations 2hr ([1]; 0.5 mg/kg i.p.): 0.00 ± 0.00
Manipulations 4hr ([1]; 0.5 mg/kg i.p.): 0.00 ± 0.00
Passive 15min ([1]; 0.5 mg/kg i.p.): 0.00 ± 0.00
Passive 2hr ([1]; 0.5 mg/kg i.p.): 0.00 ± 0.00
Passive 4hr ([1]; 0.5 mg/kg i.p.): 0.00 ± 0.00
BW Day 1 ([1]; 0.5 mg/kg i.p.): 24.58 ± 0.93
BW Day 2 ([1]; 0.5 mg/kg i.p.): 24.76 ± 1.20
BT (°C) naïve ([1]; 1 mg/kg group): 37.90 ± 0.16 °C
Manipulations naïve ([1]; 1 mg/kg group): 0.00 ± 0.00
Passive naïve ([1]; 1 mg/kg group): 0.00 ± 0.00
BT (°C) 15min ([1]; 1 mg/kg i.p.): 33.53 ± 0.85 °C
BT (°C) 4hr ([1]; 1 mg/kg i.p.): 36.55 ± 0.48 °C
BT (°C) 24hr ([1]; 1 mg/kg i.p.): 36.53 ± 0.31 °C
Manipulations 15min ([1]; 1 mg/kg i.p.): 0.00 ± 0.00
Manipulations 2hr ([1]; 1 mg/kg i.p.): 0.00 ± 0.00
Manipulations 4hr ([1]; 1 mg/kg i.p.): 0.00 ± 0.00
Passive 15min ([1]; 1 mg/kg i.p.): 0.00 ± 0.00
Passive 2hr ([1]; 1 mg/kg i.p.): 0.00 ± 0.00
Passive 4hr ([1]; 1 mg/kg i.p.): 0.00 ± 0.00
body temperature 15 min after the injection ([1]; 1 mg/kg i.p.): decreased the body temperature
BW Day 1 ([1]; 1 mg/kg i.p.): 24.55 ± 0.94
BW Day 2 ([1]; 1 mg/kg i.p.): 24.10 ± 0.61
time spent at the bottom [2, 4]: reduced the time spent at the bottom
time spent at the top [2, 4]: increased the time spent at the top
freezing response ([2]; 1 and 10 mg/L): no freezing response
total distance traveled ([2]; 1 and 10 mg/L): decreased total distance traveled
